# Reference: ChEMBL document CHEMBL1201862, “PubChem BioAssay data set” (2004)
# The source made the active and inactive calls.
# Assays:
# [1] = Luminescence-based cell-based high throughput dose response assay to identify activators of the DAF-12 from the parasite S. stercoralis (ssDAF-12).; type: functional
# [2] = target: T1, Oxysterols receptor LXR-beta (Homo sapiens, UniProt P55055); test: LXR agonists, Gal4 luciferase reporter, dose response, counter-screen for ssDAF-12 agonist project, cell-based, luminescence, HEK293, S. stercoralis campaign (AID 720737); type: functional; settings: read-out: IC50 (the source's name)
# T1 sequence (P55055 whole entry): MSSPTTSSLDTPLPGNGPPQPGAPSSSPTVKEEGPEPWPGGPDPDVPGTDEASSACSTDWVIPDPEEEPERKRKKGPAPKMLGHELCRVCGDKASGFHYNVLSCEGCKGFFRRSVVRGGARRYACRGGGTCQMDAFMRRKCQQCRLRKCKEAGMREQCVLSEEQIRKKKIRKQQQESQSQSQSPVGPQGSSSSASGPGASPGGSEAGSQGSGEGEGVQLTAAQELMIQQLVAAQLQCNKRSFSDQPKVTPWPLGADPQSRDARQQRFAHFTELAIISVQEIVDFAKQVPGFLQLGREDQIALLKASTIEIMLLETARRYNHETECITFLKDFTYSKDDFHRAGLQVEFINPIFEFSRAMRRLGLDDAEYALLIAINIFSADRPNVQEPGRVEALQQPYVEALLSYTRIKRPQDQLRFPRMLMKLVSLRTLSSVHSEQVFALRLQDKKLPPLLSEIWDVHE
# Bcl-2-related protein A1 [3] = target: T2, Bcl-2-related protein A1 (Mus musculus, UniProt Q07440); test: Bfl-1 binding inhibitors, SAR follow-up, biochemical, fluorescence polarization (AID 1070)
# T2 sequence (Q07440 whole entry): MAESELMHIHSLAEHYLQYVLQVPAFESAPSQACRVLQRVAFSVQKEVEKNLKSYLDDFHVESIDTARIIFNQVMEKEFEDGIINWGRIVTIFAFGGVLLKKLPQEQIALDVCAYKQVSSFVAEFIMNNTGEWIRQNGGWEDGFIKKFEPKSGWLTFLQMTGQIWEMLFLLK
# Bcl-2-related protein A1 [4] = target: T2, Bcl-2-related protein A1; test: small-molecule antagonists of Bfl-1/BH3 interaction – biochemical, TR-FRET, mouse Bfl-1, confirmation (AID 621);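 also: TR-FRET binding of GST-Bfl-1 to FITC-labelled Bid peptide via terbium antibody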
# [5] = target: T3, Histone-lysine N-methyltransferase NSD2 (Homo sapiens, UniProt O96028); type: biochemical
# T3 sequence (O96028 whole entry): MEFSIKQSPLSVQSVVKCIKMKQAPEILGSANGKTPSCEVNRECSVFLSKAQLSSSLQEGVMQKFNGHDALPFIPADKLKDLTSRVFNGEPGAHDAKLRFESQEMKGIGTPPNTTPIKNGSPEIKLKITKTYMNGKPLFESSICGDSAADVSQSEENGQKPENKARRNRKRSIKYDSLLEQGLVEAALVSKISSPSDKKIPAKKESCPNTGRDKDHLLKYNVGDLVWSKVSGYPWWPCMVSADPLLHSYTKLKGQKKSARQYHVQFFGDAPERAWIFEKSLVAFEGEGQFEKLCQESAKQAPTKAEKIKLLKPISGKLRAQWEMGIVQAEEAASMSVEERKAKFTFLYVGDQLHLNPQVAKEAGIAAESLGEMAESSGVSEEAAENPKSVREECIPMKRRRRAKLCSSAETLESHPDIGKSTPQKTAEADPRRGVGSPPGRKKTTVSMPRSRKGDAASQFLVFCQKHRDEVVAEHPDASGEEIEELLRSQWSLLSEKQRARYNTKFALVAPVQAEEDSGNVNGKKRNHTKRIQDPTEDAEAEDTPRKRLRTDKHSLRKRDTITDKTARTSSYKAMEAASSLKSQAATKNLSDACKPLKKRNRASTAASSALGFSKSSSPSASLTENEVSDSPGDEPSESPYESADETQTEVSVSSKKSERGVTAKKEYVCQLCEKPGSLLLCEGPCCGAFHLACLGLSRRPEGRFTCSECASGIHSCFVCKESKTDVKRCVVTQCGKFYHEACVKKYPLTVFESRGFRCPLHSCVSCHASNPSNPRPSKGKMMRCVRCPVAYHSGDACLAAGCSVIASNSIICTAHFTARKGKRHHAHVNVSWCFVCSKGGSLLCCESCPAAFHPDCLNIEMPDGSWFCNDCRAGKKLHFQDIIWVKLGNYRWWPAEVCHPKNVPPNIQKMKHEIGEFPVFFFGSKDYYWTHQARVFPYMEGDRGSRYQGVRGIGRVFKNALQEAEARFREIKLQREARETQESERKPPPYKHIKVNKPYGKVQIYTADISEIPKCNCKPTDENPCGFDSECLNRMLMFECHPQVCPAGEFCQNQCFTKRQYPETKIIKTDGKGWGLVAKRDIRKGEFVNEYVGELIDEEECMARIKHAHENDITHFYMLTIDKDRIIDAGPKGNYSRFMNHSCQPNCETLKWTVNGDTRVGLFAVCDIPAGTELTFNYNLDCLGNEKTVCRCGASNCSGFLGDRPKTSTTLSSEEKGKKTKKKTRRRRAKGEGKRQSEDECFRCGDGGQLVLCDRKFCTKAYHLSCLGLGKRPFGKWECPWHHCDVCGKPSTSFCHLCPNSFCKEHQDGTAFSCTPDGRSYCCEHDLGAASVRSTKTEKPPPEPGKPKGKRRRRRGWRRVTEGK
# Caspase-6 = target: T4, Caspase-6 (Homo sapiens, UniProt P55212); test: inhibition of CASP6 peptide cleavage – biochemical, VEID-R110 fluorescence, cherry-pick, dose response (AID 720632)
# T4 sequence (P55212 whole entry): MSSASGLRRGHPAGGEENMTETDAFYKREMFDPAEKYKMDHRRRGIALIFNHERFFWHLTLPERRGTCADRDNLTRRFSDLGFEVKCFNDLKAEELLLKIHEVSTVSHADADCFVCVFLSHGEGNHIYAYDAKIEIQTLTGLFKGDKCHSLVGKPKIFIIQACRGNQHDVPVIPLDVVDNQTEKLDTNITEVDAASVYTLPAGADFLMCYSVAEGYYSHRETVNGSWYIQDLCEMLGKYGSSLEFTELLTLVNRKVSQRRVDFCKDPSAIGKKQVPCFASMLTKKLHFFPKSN
# Cytochrome P450 2C19 = Cytochrome P450 2C19 (Homo sapiens, UniProt P33261); test: Cytochrome panel assay with activity outcomes. Panel member name: p450-cyp2c19 Compounds with AC50 equal or less than 10 uM are considered active; type: functional; settings: read-out: AC50
# Sequence of Cytochrome P450 2C19 (P33261 whole entry): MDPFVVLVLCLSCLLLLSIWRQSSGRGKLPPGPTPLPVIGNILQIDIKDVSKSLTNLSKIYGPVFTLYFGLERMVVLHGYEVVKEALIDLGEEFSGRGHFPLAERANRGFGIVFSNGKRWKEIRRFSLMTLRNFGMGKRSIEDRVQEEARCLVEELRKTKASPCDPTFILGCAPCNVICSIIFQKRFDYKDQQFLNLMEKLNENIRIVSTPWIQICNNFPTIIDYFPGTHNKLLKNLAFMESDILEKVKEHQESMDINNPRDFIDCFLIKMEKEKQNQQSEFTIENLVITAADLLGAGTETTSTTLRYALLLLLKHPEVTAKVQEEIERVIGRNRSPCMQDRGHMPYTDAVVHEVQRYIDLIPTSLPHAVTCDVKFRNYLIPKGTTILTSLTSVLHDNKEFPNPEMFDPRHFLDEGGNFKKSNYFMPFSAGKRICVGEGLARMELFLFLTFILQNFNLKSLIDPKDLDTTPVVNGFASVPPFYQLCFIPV
# Cytochrome P450 2C9 = Cytochrome P450 2C9 (Homo sapiens, UniProt P11712)
# Sequence of Cytochrome P450 2C9 (P11712 whole entry): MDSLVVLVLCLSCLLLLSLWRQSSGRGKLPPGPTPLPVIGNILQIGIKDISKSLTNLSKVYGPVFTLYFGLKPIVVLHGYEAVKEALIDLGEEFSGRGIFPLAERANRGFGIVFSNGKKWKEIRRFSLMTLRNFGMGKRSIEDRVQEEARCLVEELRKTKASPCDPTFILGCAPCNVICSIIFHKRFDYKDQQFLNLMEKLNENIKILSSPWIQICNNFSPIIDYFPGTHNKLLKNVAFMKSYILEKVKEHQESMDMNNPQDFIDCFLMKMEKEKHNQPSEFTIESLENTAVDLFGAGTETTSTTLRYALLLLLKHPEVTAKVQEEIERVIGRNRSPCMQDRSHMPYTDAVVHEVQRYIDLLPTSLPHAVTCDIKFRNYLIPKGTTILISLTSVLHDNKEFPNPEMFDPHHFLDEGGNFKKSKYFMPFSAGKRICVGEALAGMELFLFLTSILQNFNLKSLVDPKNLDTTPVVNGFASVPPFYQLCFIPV
# [6] = target: T5, COUP transcription factor 2 (Homo sapiens, UniProt P24468); test: Luminescence-based cell-based high throughput dose response assay to identify inhibitors of COUP-TFII (NR2F2).; type: functional;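 also: HEK293 cells transiently cotransfected with COUP-TFII expression vector and reporter; luciferase reporter luminescence driven by COUP-TFII from the pX2-168 reporter plasmid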
# T5 sequence (P24468 whole entry): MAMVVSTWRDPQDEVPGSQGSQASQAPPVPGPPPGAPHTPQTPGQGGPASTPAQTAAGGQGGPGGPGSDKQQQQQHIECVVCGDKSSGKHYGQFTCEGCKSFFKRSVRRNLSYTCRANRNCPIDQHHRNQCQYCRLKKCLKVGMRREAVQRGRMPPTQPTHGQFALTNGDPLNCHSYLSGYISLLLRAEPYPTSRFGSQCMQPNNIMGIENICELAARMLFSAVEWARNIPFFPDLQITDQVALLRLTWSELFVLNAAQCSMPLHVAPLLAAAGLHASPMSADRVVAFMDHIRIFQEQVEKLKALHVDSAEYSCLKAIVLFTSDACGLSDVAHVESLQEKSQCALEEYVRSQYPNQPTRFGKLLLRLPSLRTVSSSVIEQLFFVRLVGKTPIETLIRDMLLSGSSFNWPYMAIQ
# INS1 = test: INS-1E survival protection against cytokine death – cell-based, luminescence, retest, dose response (AID 449756); type: functional; settings: Rattus norvegicus;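 also: cell death triggered by IL-1 beta plus TNF-alpha plus IFN-gamma mixture; protective hits raise ATP signal compared with cytokine alone wells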
# Galanin receptor type 3 = target: T6, Galanin receptor type 3 (Homo sapiens, UniProt O60755); test: Fluorescence-based cell-based primary high throughput dose response assay to identify antagonists of the Galanin Receptor 3 (GalR3).; type: functional
# T6 sequence (O60755 whole entry): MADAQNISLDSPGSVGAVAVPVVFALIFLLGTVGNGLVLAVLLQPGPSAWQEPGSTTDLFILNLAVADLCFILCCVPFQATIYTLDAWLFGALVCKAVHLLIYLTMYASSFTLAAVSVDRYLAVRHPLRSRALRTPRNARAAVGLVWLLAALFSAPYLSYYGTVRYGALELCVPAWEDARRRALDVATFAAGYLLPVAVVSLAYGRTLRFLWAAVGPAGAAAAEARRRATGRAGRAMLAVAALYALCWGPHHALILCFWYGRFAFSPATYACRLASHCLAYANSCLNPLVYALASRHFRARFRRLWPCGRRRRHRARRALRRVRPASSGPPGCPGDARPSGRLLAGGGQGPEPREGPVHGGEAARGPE
# cells = type: functional, cell-based; settings: HEK-CNG
# [7] = target: Peroxisome proliferator-activated receptor gamma/Nuclear receptor corepressor 2 (Homo sapiens, UniProt P37231+Q9Y618); test: Counterscreen for NR2E3 inverse agonists: TR-FRET-based biochemical high throughput dose response assay to identify inverse agonists of the interaction between peroxisome proliferator-activated receptor gamma (PPARg) and nuclear receptor co-repressor 2 (NCOR2).; type: functional
# Sequence of Peroxisome proliferator-activated receptor gamma/Nuclear receptor corepressor 2 (P37231 whole entry): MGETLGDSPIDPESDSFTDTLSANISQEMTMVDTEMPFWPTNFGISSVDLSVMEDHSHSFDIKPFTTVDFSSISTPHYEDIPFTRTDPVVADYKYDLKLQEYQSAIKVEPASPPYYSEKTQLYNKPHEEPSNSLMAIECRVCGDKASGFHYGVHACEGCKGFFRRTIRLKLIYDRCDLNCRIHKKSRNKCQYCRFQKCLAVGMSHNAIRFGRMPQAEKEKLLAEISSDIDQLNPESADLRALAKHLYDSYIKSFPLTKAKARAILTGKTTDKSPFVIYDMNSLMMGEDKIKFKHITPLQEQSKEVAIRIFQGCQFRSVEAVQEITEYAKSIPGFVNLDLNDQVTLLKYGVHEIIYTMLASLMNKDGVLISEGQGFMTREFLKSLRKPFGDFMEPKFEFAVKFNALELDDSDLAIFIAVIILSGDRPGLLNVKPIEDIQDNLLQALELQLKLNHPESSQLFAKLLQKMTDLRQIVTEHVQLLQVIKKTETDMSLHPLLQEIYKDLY
# Sequence of Peroxisome proliferator-activated receptor gamma/Nuclear receptor corepressor 2 (Q9Y618 whole entry): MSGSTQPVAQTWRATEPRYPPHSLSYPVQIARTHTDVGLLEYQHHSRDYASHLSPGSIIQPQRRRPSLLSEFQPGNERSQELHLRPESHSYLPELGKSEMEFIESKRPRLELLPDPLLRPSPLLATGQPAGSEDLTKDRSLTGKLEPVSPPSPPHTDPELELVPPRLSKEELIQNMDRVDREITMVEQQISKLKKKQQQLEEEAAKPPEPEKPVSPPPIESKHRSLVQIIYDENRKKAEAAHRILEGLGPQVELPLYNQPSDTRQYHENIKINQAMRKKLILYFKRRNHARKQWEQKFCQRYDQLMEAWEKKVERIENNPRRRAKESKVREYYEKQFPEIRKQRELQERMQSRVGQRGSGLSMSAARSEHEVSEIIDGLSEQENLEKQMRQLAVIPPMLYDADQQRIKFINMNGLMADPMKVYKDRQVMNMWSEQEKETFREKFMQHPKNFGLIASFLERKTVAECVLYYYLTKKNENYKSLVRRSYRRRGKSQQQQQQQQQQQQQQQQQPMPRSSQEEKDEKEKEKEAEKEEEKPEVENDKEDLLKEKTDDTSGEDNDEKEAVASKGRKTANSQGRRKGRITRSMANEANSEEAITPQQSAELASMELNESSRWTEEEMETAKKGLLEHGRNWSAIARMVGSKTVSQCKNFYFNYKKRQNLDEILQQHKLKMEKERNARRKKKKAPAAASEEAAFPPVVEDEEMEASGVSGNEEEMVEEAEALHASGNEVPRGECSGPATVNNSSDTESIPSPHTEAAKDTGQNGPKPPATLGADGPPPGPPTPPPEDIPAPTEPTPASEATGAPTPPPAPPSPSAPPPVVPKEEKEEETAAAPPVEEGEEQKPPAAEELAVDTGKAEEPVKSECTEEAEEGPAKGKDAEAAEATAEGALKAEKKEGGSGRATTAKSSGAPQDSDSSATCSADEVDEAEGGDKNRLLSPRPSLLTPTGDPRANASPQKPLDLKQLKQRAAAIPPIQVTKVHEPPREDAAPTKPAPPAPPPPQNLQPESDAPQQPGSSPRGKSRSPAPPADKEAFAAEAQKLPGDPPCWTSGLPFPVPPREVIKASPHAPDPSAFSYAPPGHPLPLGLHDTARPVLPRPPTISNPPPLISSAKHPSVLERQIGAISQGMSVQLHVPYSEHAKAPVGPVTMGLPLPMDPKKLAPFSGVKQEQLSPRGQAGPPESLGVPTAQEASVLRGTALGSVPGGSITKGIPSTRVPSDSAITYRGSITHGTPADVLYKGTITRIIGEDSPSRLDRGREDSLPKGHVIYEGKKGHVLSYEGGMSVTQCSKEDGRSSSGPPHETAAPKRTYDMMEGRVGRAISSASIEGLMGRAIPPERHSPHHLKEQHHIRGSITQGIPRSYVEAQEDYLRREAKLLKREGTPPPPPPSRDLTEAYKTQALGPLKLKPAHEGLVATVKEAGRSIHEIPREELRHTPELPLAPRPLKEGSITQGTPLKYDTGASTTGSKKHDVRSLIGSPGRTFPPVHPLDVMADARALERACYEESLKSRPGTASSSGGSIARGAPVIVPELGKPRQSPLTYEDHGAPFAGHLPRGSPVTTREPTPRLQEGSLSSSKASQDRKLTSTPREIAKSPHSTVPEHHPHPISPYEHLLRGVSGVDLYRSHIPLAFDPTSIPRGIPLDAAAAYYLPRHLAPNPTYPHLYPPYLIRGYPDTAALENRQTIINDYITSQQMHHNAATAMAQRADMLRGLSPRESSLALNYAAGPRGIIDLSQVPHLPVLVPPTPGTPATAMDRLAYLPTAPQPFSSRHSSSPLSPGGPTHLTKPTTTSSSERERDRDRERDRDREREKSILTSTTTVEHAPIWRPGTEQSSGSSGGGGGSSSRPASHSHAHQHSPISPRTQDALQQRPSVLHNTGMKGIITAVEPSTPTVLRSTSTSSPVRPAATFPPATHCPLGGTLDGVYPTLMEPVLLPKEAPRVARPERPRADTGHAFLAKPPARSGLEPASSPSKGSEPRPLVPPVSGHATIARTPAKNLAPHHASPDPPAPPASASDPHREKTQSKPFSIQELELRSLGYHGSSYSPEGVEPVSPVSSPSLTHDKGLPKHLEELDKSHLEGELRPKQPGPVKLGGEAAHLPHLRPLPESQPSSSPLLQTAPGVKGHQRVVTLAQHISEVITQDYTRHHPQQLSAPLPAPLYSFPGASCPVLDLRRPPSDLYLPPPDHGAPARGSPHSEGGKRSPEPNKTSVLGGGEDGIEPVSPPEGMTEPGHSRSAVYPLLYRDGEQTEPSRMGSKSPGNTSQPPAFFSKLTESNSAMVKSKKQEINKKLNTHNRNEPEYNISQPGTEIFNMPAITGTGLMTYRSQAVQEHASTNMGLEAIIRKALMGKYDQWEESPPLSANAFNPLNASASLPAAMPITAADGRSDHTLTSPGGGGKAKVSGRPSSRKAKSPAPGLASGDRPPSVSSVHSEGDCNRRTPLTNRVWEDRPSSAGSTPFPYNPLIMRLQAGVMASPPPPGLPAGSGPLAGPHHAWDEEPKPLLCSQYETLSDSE
# [8] = target: Photoreceptor-specific nuclear receptor (Homo sapiens, UniProt Q9Y5X4); test: ligands suppressing NR2E3 nuclear receptor activity – biochemical, TR-FRET, dose response (AID 463256); type: functional
# Sequence of Photoreceptor-specific nuclear receptor (Q9Y5X4 whole entry): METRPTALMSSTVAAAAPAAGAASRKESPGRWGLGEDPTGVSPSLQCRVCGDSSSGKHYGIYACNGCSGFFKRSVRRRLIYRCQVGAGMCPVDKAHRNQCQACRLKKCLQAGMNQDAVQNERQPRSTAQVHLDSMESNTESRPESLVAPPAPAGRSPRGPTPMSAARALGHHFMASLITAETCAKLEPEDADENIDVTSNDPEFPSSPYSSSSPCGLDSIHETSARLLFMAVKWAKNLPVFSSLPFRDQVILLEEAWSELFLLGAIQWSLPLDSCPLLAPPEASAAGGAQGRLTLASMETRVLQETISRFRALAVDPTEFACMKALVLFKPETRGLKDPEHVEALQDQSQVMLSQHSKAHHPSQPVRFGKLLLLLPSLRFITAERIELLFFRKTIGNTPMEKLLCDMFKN
# [9] = loss of viability in HepG2 cells – cell-based, CellTiter-Glo, cherry-picked, cytotoxicity control for Shn3 inhibitor project, dose response (AID 624134); type: functional
# [10] = non-specific 3'UTR reporter inhibition in Clone20-Shn3RL – cell-based, Renilla luciferase, cherry-picked, counter-screen for Shn3 inhibitor project, dose response (AID 624133); type: functional
# [11] = reduction of Shn3 3'UTR-driven luciferase in osteoblasts – cell-based, Clone20 osteoblasts, firefly luciferase, cherry-picked, dose response (AID 624132); type: functional;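 also: firefly luciferase luminescence from reporter carrying the Shn3 3'UTR in osteoblasts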
# Paired box protein Pax-8 = Paired box protein Pax-8 (Homo sapiens, UniProt Q06710); test: PAX8 transcriptional activity inhibition in RMG-I – RMG-I cells, luciferase, cherry-pick, dose response (AID 687027); type: functional, cell-based;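 also: luciferase reporter driven by Pax8 target thyroperoxidase promoter measured by SteadyGlo luminescence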
# Sequence of Paired box protein Pax-8 (Q06710 whole entry): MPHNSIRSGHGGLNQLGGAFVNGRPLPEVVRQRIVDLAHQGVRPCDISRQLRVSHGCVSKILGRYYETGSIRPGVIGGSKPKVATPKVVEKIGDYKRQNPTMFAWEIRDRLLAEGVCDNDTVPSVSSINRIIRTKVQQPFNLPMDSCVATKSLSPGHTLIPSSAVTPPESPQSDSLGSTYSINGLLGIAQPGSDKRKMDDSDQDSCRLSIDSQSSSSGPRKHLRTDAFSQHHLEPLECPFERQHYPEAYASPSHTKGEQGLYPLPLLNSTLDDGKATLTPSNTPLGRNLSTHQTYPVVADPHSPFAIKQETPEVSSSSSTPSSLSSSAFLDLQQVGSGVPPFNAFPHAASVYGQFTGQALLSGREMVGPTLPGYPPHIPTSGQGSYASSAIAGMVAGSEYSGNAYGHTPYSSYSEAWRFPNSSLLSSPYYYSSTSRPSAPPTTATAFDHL
# [12] = toxicity to human hepatoma HepG2 cells – cell-based, cherry-picked samples, cytotoxicity control, dose response (AID 1159577); type: functional
# [13] = P. falciparum Dd2 growth inhibitors, dose response, SYBR Green, cherry-picked samples (AID 1159567); type: functional, cell-based
# [14] = IGROV1 cell killing – plate reader, dry powder samples, PAX8 inhibitor project, dose response (AID 743043); type: functional, cell-based; settings: IGROV-1
# [15] = inhibitors of non-replicating M. tuberculosis, dose response, luciferase, dry powder (AID 651620); type: functional; settings: Mycobacterium tuberculosis
# [16] = inhibitors of non-replicating M. tuberculosis, dose response, luciferase, dry powder (AID 651619); type: functional; settings: Mycobacterium tuberculosis
# [17] = growth inhibition of replicating M. tuberculosis, dose response, counter-screen, dry powder, IC90 (AID 651617); type: functional; settings: Mycobacterium tuberculosis
# [18] = Dd2 malaria parasite growth inhibition potency – SYBR Green, dry powder samples, dose response (AID 1159566); type: functional, cell-based;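 also: potency for growth inhibition with lower SYBR green DNA signal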
# [19] = growth inhibition of yeast DHODH-expressing 3D7 parasites – SYBR Green, dry powder samples, dose response (AID 1159570); type: functional, cell-based;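 also: parasite growth measured after 72 hours of compound exposure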
# [20] = growth inhibition of PfATP4-mutant resistant parasites – NITD609-resistant line, SYBR Green, dry powder, dose response (AID 1159571); type: functional, cell-based;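 also: parasites synchronized at ring stage by sorbitol before testing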
smiles,measurement,setting,value
Fc1ccc(-c2cnn3c(-c4cccs4)ccnc23)cc1,IC50,[1],> 67.5 µM (inactive)
same,EC50,[2],> 67.5 µM (inactive)
COc1ccc2nc(O)c(-c3nnn(-c4ccc(Cl)nc4)n3)cc2c1,IC50,Bcl-2-related protein A1 [3],> 100 µM (not active)
same,IC50,Bcl-2-related protein A1 [4],> 100 µM (not active)
Nc1cc(S(=O)(=O)O)cc2ccc(S(=O)(=O)O)cc12,AC50,[5],> 20 µM (inactive)
same,AC50,Caspase-6,45.1 µM (active)
same,AC50,Cytochrome P450 2C19,7.94 µM (inconclusive)
same,AC50,Cytochrome P450 2C9,7.94 µM (inconclusive)
Cc1ccc(-n2nnc(-c3cccnc3)n2)cc1,IC50,Bcl-2-related protein A1 [3],> 100 µM (not active)
same,IC50,Bcl-2-related protein A1 [4],> 100 µM (not active)
O=C(O)c1ccccc1SCC(=O)N1CCc2ccccc21,IC50,[1],> 67.5 µM (inactive)
same,EC50,[2],> 67.5 µM (inactive)
COC(=O)C1CCCCN1C(=O)c1cc(COc2cccc3cnccc23)on1 (centres undefined),IC50,[6],7.34 µM (active)
same,AC50,INS1,3.68 µM (active)
same,IC50,Galanin receptor type 3,1.48 µM (active)
same,EC50,cells,> 29.9 µM (inactive)
O=C(CSc1nnc(-c2cccs2)n1-c1ccccc1)Nc1ccccc1,IC50,[7],11.8 µM (not active)
same,IC50,[8],5.52 µM (active)
Fc1ccc(-n2nnc(-c3cc4ccccc4nc3Cl)n2)cc1,IC50,Bcl-2-related protein A1 [3],> 100 µM (not active)
same,IC50,Bcl-2-related protein A1 [4],> 100 µM (not active)
COc1cc2c(cc1OC)C1C(=O)c3ccc4c(c3OC1CO2)CC(C(C)C)O4 (centres undefined),IC50,[6],0.519 µM (active)
same,IC50,Galanin receptor type 3,0.0386 µM (active)
same,AC50,[9],0.614 µM (active)
same,AC50,[10],5.08 µM (active)
same,AC50,[11],< 0.26 µM (active)
same,EC50,cells,> 29.9 µM (inactive)
C[C@H](CO)N1C[C@H](C)[C@@H](CN(C)Cc2ccc(Cl)c(Cl)c2)Oc2ccc(NC(=O)Nc3ccc(C(F)(F)F)cc3)cc2CC1=O,AC50,Paired box protein Pax-8,6.35 µM (active)
same,AC50,[12],11.8 µM (active)
same,AC50,[13],2.62 µM (active)
same,AC50,[14],54.3 µM (active)
Fc1ccc(CSc2nnc(-c3ccccc3)o2)cc1,IC90,[15],4 µM (active)
same,IC90,[16],4 µM (active)
same,IC90,[17],250 µM (active)
C/C=C/c1ccc2c(c1)[C@H]1[C@H](CCN1C(=O)c1ccc(F)cc1)[C@H](CO)N2,AC50,[13],2.79 µM (active)
same,AC50,[18],2.01 µM (active)
same,AC50,[19],1.96 µM (active)
same,AC50,[20],2 µM (active)
CCN(C[C@@H]1N[C@@H](CO)[C@H]1c1ccc(-c2ccc(F)cc2)cc1)C(=O)CN(C)C,AC50,[12],8.36 µM (active)
same,AC50,[13],2.05 µM (active)
